# Data from patent US20260284153A1, “COMPOSITION COMPRISING GV1001 FOR PREVENTING OR TREATING PERIODONTAL DISEASES AND DISORDERS CAUSED BY PERIODONTAL DISEASES” (GEMVAX & KAEL CO., LTD., priority 2023, published 2026).
# What was measured:
# [1] = test system: human umbilical vein endothelial cells (HUVECs); assay: EndMT of HUVECs stimulated with TNF-α and Porphyromonas gingivalis LPS; type: cell-based; conditions: FIGS. 13A, 13B
# Protocol: (§1) The expression levels of inflammatory cytokines in serum and arterial tissue, the aggregation of Porphyromonas gingivalis, Porphyromonas gingivalis LPS, Kgp and RgpB in arterial tissue, changes in cholesterol levels in serum, and lipid deposition (atherosclerosis) in the arterial wall were determined. In vitro, inhibition of EndMT and inhibition of macrophage uptake of dil-ox-LDL were evaluated. Further, the CD47 expression levels were determined in the aortic root in vivo and in vitro.
# It is known that when endothelial cells (ECs) change their phenotype into mesenchymal cells (MCs) through endothelial-to-mesenchymal transition (EndMT), it induces various vascular diseases (atherosclerosis, pulmonary hypertension, fibrosis, etc.). TNF-α is known as a cytokine involved in this process. In the present invention, it was confirmed that when human umbilical vein endothelial cells (HUVECs) were stimulated with TNF-α and Porphyromonas gingivalis LPS, ECs (marker; CD31) were decreased while MCs (marker; FSP-1) were increased due to EndMT (FIGS. 13A and 13B). • Control group: EndMT of HUVECs was confirmed to progress by TNF-α and Porphyromonas gingivalis LPS. • GV1001 administration group: The EndMT progression of HUVECs was confirmed to be inhibited by GV1001. […]
# [2] = test system: CD47 in human coronary artery smooth muscle cells (HCASMC); assay: CD47 expression in HCASMC treated with TNF-α and Porphyromonas gingivalis LPS; type: cell-based; conditions: TNF-α and Porphyromonas gingivalis LPS treatment; FIGS. 16A to 16F
# Protocol: as §1
# CD47, a representative anti-phagocytic factor, is known to interfere with the removal of cancer cells by macrophages, and overexpression of CD47 is known to cause atherosclerosis. In the present invention, the expression level of CD47 in the aortic root was confirmed in an animal model of periodontitis induction (FIGS. 15A and 15B). […] 2.3 Effect of GV1001 in Alzheimer's Disease Associated with Periodontitis
# [3] = test system: Porphyromonas gingivalis-induced periodontitis; assay: Periodontitis efficacy in Pg-treated, ligature-placed, high-fat-diet ApoE-/- mouse model; type: in vivo, ApoE−/− mice (C57BL/6 background)
# Description: (§2) An animal model was created using ApoE^−/^− mice (C57BL/6 background, male, 4 weeks old).
# (§3) Animal models were fed with a high-fat diet (HFD), and a 6-0 silk ligature was placed around the maxillary second molar to create a gingival pocket using the ligature placement method for 1 week, followed by treatment with Porphyromonas gingivalis (Pg) or PBS for 5 weeks.
# (§4) The depth of the periodontal pocket, the expression level of inflammatory cytokines in the gingival tissue (mRNA level, IF staining), the aggregation of Porphyromonas gingivalis, Porphyromonas gingivalis LPS, Kgp and RgpB in the gingival tissue, the amount of alveolar bone loss, and the number of osteoclasts in the alveolar bone were determined. Further, the effect on osteoclastogenesis was confirmed in an in vitro test.
# Raw264.7 = assay: In vitro osteoclastogenesis of macrophage cell line induced into osteoclasts; type: cell-based; conditions: Raw264.7 induced into osteoclasts; FIGS. 6A to 6E
# Protocol: as §4
# To confirm the efficacy of GV1001 on alveolar bone loss, μCT was used to determine alveolar bone loss in a periodontitis-induced animal model (FIGS. 4A to 4C), and the number of osteoclasts in the alveolar bone was determined by TRAP staining (FIGS. 5A and 5B).
# [4] = test system: Alzheimer's disease induced by periodontitis; assay: Periodontitis-related Alzheimer's disease efficacy in Pg-treated ApoE-/- mouse model; type: in vivo, ApoE−/− mice (C57BL/6 background); conditions: GV1001 2 mg/kg i.p., vs control
# Description: as §2, §3
# The expression levels of inflammatory cytokines, the aggregation of Porphyromonas gingivalis, Porphyromonas gingivalis LPS and Kgp, RgpB, and the accumulation of Aβ42 and p-Tau in brain tissue were confirmed.
# [5] = test system: macrophages differentiated from THP-1 (human monocyte cell line) cells; assay: ox-LDL uptake by macrophages differentiated from THP-1 cells; type: cell-based; conditions: induced by TNF-α and Porphyromonas gingivalis LPS; THP-1-derived macrophages; FIGS. 14A, 14B
# Protocol: as §1
# It is known that the formation of foam cells by macrophages in response to LDL and TNF-α is an important process in atherosclerosis. […] As a result, this means that the inhibition of atherogenesis by GV1001 is partly due to its inhibitory effect on foam cell formation.
# [6] = test system: gingipain (RgpA, RgpB, Kgp); assay: In vitro expression of gingipain in Porphyromonas gingivalis; type: cell-based; conditions: FIG. 23
# Protocol: To understand the fundamental mechanism of Porphyromonas gingivalis colony formation, and the reduction of Porphyromonas gingivalis LPS and gingipain by GV1001 in gingival tissues, arterial walls and brain, the effect of GV1001 on the expression of gingipain, which is an enzyme important for the growth and tissue invasion of Porphyromonas gingivalis, was investigated. […] Very low doses (5-30 μM) of GV1001 reduced the expression of RgpA and RgpB by approximately 5 times and the expression of Kgp by approximately 3 times, compared with the control group (Porphyromonas gingivalis 16S IRNA) (FIG. 23).
# [7] = test system: atherosclerosis induced by periodontitis; assay: Periodontitis-related atherosclerosis efficacy in Pg-treated ApoE-/- mouse model; type: in vivo, ApoE−/− mice (C57BL/6 background); conditions: GV1001 2 mg/kg i.p., vs control
# Description: as §2, §3, §1
# [8] = GV1001 2 mg/kg i.p., vs control, FIGS. 3A, 3B
# [9] = 5-30 μM GV1001, compared with the control group (Porphyromonas gingivalis 16S IRNA)
substance,measurement,setting,value
"GV1001: peptide consisting of 16 amino acids, SEQ ID NO: 1, derived from human telomerase reverse transcriptase (hTERT) (EARPALLTSRLRFIPK; UniProt O14746 611-626, looked up, fragment)","EndMT progression of HUVECs (CD31, FSP-1 markers)",[1],inhibited
same,expression level of CD47 in HCASMC,[2],significantly reduced
same,"inflammatory cytokine (IL-1β, TNF-α, IL-6) mRNA levels in periodontal tissue","[3]; GV1001 2 mg/kg i.p. 3 times/week for 10 weeks, vs periodontitis control, FIG. 1",significantly reduced
same,"inflammatory cytokines (IL-1β, TNF-α, IL-6, GM-CSF, VEGF, IL-17, KC) in serum","[3]; GV1001 2 mg/kg i.p., all cytokines, vs control, FIGS. 7A, 7B",significantly suppressed
same,Porphyromonas gingivalis LPS in gingival tissue,[3]; [8],significantly reduced
same,"gingipain (Kgp, RgpB) in gingival tissue",[3]; [8],significantly reduced
same,number of Porphyromonas gingivalis colonies in gingival tissue,[3]; [8],significantly reduced
same,alveolar bone loss (μCT),"[3]; GV1001 2 mg/kg i.p., vs control, FIGS. 4A to 4C",significantly reduced
same,"osteoclastogenesis in alveolar bone (number of osteoclasts, TRAP staining)","[3]; GV1001 2 mg/kg i.p., vs control, FIGS. 5A, 5B",significantly inhibited
same,inflammatory cytokine expression in periodontal tissue by fluorescent staining,"[3]; GV1001 2 mg/kg i.p., vs periodontitis control, FIGS. 2A, 2B",decrease in cytokine expression was confirmed
same,osteoclastogenesis in vitro,Raw264.7,significantly inhibited
same,"inflammatory cytokine (IL-1β, TNF-α, IL-6) mRNA levels in brain tissue",[4]; FIG. 17,significantly reduced
same,inflammatory cytokine expression in brain tissue by fluorescent staining,[4]; FIGS. 18A to 19B,decrease in cytokine expression was confirmed
same,Porphyromonas gingivalis LPS in the cerebral cortex and hippocampus,[4]; FIGS. 20A to 21B,significantly reduced
same,"gingipain (Kgp, RgpB) in the cerebral cortex and hippocampus",[4]; FIGS. 20A to 21B,significantly reduced
same,number of Porphyromonas gingivalis colonies in the cerebral cortex and hippocampus,[4]; FIGS. 20A to 21B,significantly reduced
same,accumulation of Aβ42 in the cerebral cortex and hippocampus,"[4]; FIGS. 22A, 22B",significantly reduced
same,accumulation of p-Tau in the cerebral cortex and hippocampus,"[4]; FIGS. 22A, 22B",significantly reduced
same,ox-LDL uptake,[5],significantly inhibited
same,reduction of expression of Kgp,[6]; [9],approximately 3 times
same,reduction of expression of RgpA,[6]; [9],approximately 5 times
same,reduction of expression of RgpB,[6]; [9],approximately 5 times
same,expression of gingipain in vitro,[6],markedly inhibited
same,"inflammatory cytokine (IL-1β, TNF-α, IL-6) mRNA levels in arterial tissue",[7]; FIG. 8,significantly reduced
same,inflammatory cytokine expression in arterial tissue by fluorescent staining,"[7]; FIGS. 9A, 9B",decrease in cytokine expression was confirmed
same,Porphyromonas gingivalis LPS in the arterial wall,"[7]; FIGS. 10A, 10B",significantly reduced
same,"gingipain (Kgp, RgpB) in the arterial wall","[7]; FIGS. 10A, 10B",significantly reduced
same,number of Porphyromonas gingivalis colonies in the arterial wall,"[7]; FIGS. 10A, 10B",significantly reduced
same,level of low-density lipoprotein (LDL) in serum,"[7]; FIGS. 11A, 11B",significantly reduced
same,level of total cholesterol (TC) in serum,"[7]; FIGS. 11A, 11B",significantly reduced
same,expression level of CD47 in the aortic root,"[7]; FIGS. 15A, 15B",significantly reduced
same,"intravascular lipid deposition, wall of the aorta-iliac bifurcation","[7]; Sudan IV and Oil Red O staining, FIGS. 12A, 12B",significantly suppressed
